Measured values from patent publication US20070287727A1, “Anti-Nicotine Treatment” (priority 2006, published 2007).

Assays:
[1] = system: heavy smokers; assay: Treatment of heavy smokers using anticholinergic therapy; assay type: in vivo, human; conditions: heavy smokers unable to visit for a booster
Excerpt: Some individuals were characterized as heavy smokers and smoked 20 or more cigarettes per day. […] All of these patients received normal supportive treatment by sedative drugs and counseling on coping with and adjusting to addiction.
Booster injections were offered to all patients.

[2] = intramuscular or intravenous injection; cited from earlier work
[3] = system: monkeys; conditions: cited from earlier work
[4] = system: superior cervical ganglia; conditions: cited from earlier work

SMILES: CN1[C@@H]2CC[C@H]1C[C@@H](OC(c1ccccc1)c1ccccc1)C2 [benztropine, 8-azabicyclo [3.2.1]octane, 3-(diphenylmethoxy)-, endo, methanesulfonate]
- patient-reported well-being ([1]; a few weeks after treatment): feeling well
- relapse to smoke again ([1]; given during the 5 days after the first injection): no immediate or short term relapse
- onset of action [2]: within minutes

SMILES: C[C@H](N)Cc1ccccc1 [d-amphetamine]
- effect on smoking (puffing pattern) [3]: decreased smoking

SMILES: CN1CCCC1c1cccnc1 (stereo not shown) [nicotine]
- acetylcholinesterase ([4]; after withdrawal of nicotine): about 117 % of controls
- acetylcholine increase ([4]; chronic nicotine treatment): about 35%

SMILES: CN1[C@@H]2C[C@@H](OC(=O)[C@H](CO)c3ccccc3)C[C@H]1[C@@H]1O[C@@H]12 [scopolamine]
- effect on smoking (puffing pattern) [3]: decreased smoking
